From patent publication US12201723B2, “Combined pharmaceutical formulation comprising gemcitabine-containing liposome composition and immune checkpoint inhibitor” (FUJIFILM Corporation, priority 2018, dated 2025)

How the values were obtained:
[1] = test system: EMT6 tumor cells; assay: Drug efficacy test with combined use of PD-1 in tumor-bearing model mouse with subcutaneous transplantation of EMT6; assay type: in vivo
Text: As the test substance, the same substance as in Example 1 was used.
Changes in tumor volume are shown in FIG. 12 (mean value) and FIGS. 13 to 20 (on the basis of an individual). […] In Table 5 and Table 6, “Number of test subjects in complete remission” means that the tumor volume was zero.

[2] = test system: EMT6 tumor cells; assay: Drug efficacy test with combined use of PD-L1 in tumor-bearing model mouse with subcutaneous transplantation of EMT6
Text: An anti-PD-L1 antibody (hereinafter, also referred to as PD-L1), gemcitabine (hereinafter, also referred to as Gem), and gemcitabine-containing liposome composition (hereinafter, also referred to as liposome composition according to the embodiment of the present invention) were used as test substances. Gemcitabine hydrochloride (manufactured by Teva Pharmaceutical Industries Ltd.) dissolved in physiological saline was used as Gem. The liposome composition according to the embodiment of the present invention was diluted with a 5% glucose solution for injection (hereinafter, also referred to as 5% Glu; 0.05 g/mL) prior to use.
3×10^6 EMT6 cells, which are a mouse breast cancer cell line, were subcutaneously transplanted into the flank of female Balb mice to form subcutaneous tumors. Using the tumor volume as an index, inhibitory effects of combined administration of PD-L1 and Gem and combined administration of PD-L1 and the liposome composition according to the embodiment of the present invention on subcutaneous tumors were evaluated.
PD-L1 and an isotype control antibody thereof (hereinafter, also referred to as Iso antibody) were intraperitoneally administered twice a week for a total of 3 weeks, and Gem, the liposome composition according to the embodiment of the present invention, and a solvent therefor (5% Glu) were administered once a week by tail vein administration for a total of 3 weeks.
After the 3-week administration was completed, the drug was discontinued, and the tumor volume measurement was continued for 2 weeks. Test subjects with a tumor volume of more than 10% of body weight were euthanized during the test, and drug efficacy analysis was carried out based on the survival rate (tumor-free survival %).
Group configuration was set to a combination of 5% Glu and Iso antibody (10 mg/kg) for Group 1, a combination of 5% Glu and PD-L1 (10 mg/kg) for Group 2, a combination of Gem (240 mg/kg) and Iso antibody (10 mg/kg) for Group 3, a combination of Gem (240 mg/kg) and PD-L1 (10 mg/kg) for Group 4, a combination of the liposome composition according to the embodiment of the present invention (1 mg/kg) and Iso antibody (10 mg/kg) for Group 5, a combination of the liposome composition according to the embodiment of the present invention (1 mg/kg) and PD-L1 (10 mg/kg) for Group 6, a combination of the liposome composition according to the embodiment of the present invention (4 mg/kg) and Iso antibody (10 mg/kg) for Group 7, and a combination of the liposome composition according to the embodiment of the present invention (4 mg/kg) and PD-L1 (10 mg/kg) for Group 8.
(§1) In addition, Lipo (1) and Lipo (4) mean that the liposome composition according to the embodiment of the present invention was administered to a subject at a dose of 1 mg/kg and a dose of 4 mg/kg, respectively.
As a statistical analysis of an effect of prolonging the survival time, a log-rank test was carried out, and a p value of less than 5% between the groups was determined to have a statistically significant difference.

[3] = test system: intratumoral immune cells (CD8-positive T cells, M1 and M2 macrophages) of EMT6 tumors; assay: Changes in immune cell composition in tumor in tumor-bearing model mouse with subcutaneous transplantation of EMT6 (flow cytometry); assay type: in vivo; settings: tumors excised Days 16 and 17 after start; Gem 240 mg/kg or Lipo 4 mg/kg 3 times; CTLA-4 10 mg/kg or PBS 5 times
Text: It is said that a high percentage of CD8-positive T cells in the tumor and a high ratio of M1 macrophages compared to M2 macrophages result in an antitumor environment (reference: J Clin Invest. 2012; 122(3); 787-95).
Tumors were excised on Days 16 and 17 after the start of administration and used for analysis of intratumoral immune cells.
The excised tumor was made into a cell-dispersed state using Tumor Dissociation Kit, mouse (catalog number 130-096-730, manufactured by Miltenyi Biotec GmbH), and intratumoral immune cells were isolated using CD45 (TIL) MicroBeads (catalog number 130-110-618, manufactured by Miltenyi Biotec GmbH). Dead cells were stained using LIVE/DEAD (trademark) Fixable Yellow Dead Cell Stain Kit (catalog number L34968, manufactured by Invitrogen Corporation), and various immune cell markers were stained using the following fluorescently labeled antibodies. […] The samples were analyzed using a flow cytometer (Attune NxT, manufactured by Invitrogen Corporation). CD8-positive T cells (CD3-positive, CD8-positive), M1 macrophages (CD11b-positive, F4/80-positive, MHC Class II-positive, CD206-negative), and M2 macrophages (CD11b-positive, F4/80-positive, MHC Class II-negative, CD206-positive) were identified, and the percentage of each cell group was calculated.

[4] = test system: EMT6 tumor cells; assay: Drug efficacy test with combined use of anti-CTLA-4 antibody in tumor-bearing model mouse with subcutaneous transplantation of EMT6
Experimental: The anti-CTLA-4 antibody (hereinafter, also referred to as CTLA-4), Gem, and the liposome composition according to the embodiment of the present invention were used as test substances. […] The liposome composition according to the embodiment of the present invention was diluted with 5% Glu prior to use.
1.7×10^6 EMT6 cells, which are a mouse breast cancer cell line, were subcutaneously transplanted into the flank of female Balb/c mice to form subcutaneous tumors. Using the tumor volume as an index, inhibitory effects of combined administration of CTLA-4 and Gem and combined administration of CTLA-4 and the liposome composition according to the embodiment of the present invention on subcutaneous tumors were evaluated.
CTLA-4 and a solvent therefor (PBS) were intraperitoneally administered twice a week for a total of 3 weeks, and Gem, the liposome composition according to the embodiment of the present invention, and a solvent therefor (5% Glu) were administered once a week by tail vein administration for a total of 3 weeks.
After the 3-week administration was completed, the drug was discontinued, and the tumor volume measurement was continued for 4 weeks. Test subjects with a tumor volume of more than 10% of body weight were euthanized during the test, and drug efficacy analysis was carried out based on the survival rate (tumor-free survival %).
Group configuration was set to a combination of 5% Glu and PBS for Group 1, a combination of 5% Glu and CTLA-4 (10 mg/kg) for Group 2, a combination of Gem (240 mg/kg) and PBS for Group 3, a combination of Gem (240 mg/kg) and CTLA-4 (10 mg/kg) for Group 4, a combination of the liposome composition according to the embodiment of the present invention (1 mg/kg) and PBS for Group 5, a combination of the liposome composition according to the embodiment of the present invention (1 mg/kg) and CTLA-4 (10 mg/kg) for Group 6, a combination of the liposome composition according to the embodiment of the present invention (4 mg/kg) and PBS for Group 7, and a combination of the liposome composition according to the embodiment of the present invention (4 mg/kg) and CTLA-4 (10 mg/kg) for Group 8.
as §1
The survival rate (tumor-free survival %) in a case where a test subject with a tumor volume of more than 10% of body weight was euthanized was calculated, and the results of a survival curve by the Kaplan-Meier method are shown in FIG. 29. […] As a statistical analysis of an effect of prolonging the survival time, a log-rank test was carried out, and a p value of less than 5% between the groups was determined to have a statistically significant difference. Graghpad Prism version 5.03 was used for the calculation of median survival calculated from the survival curve by Kaplan-Meier method and the statistical analysis.

[5] = Gem 240 mg/kg or Lipo 1 mg/kg, CTLA-4 10 mg/kg or PBS

Nc1ccn([C@@H]2O[C@H](CO)[C@@H](O)C2(F)F)c(=O)n1 [Gem, (+)-2′-deoxy-2′,2′-difluorocytidine]
tumor growth inhibitory effect (in words) ([1]; Gem 240 mg/kg or Lipo 2 mg/kg, PD-1 10 mg/kg or PBS): tumor growth could not be stopped
Complete remission rate (%) ([1]; by day 41, Gem 240 mg/kg or Lipo 2 mg/kg, PD-1 10 mg/kg or PBS): 0%
Number of test subjects in complete remission ([1]; by post-transplantation day 41, 8 per group, Gem 240 mg/kg or Lipo 2 mg/kg once/3W tail, PD-1 10 mg/kg or PBS twice/3W i.p.): 0
Tumor volume mean value (mm^3) ([1]; day 6 after transplantation, Gem 240 mg/kg or Lipo 2 mg/kg, PD-1 10 mg/kg or PBS): 432 mm^3
Tumor volume mean value (mm^3) ([1]; day 9 after transplantation, Gem 240 mg/kg or Lipo 2 mg/kg, PD-1 10 mg/kg or PBS): 473 mm^3
Tumor volume mean value (mm^3) ([1]; day 13 after transplantation, Gem 240 mg/kg or Lipo 2 mg/kg, PD-1 10 mg/kg or PBS): 1129 mm^3
Tumor volume mean value (mm^3) ([1]; day 16 after transplantation, Gem 240 mg/kg or Lipo 2 mg/kg, PD-1 10 mg/kg or PBS): 1228 mm^3
Tumor volume mean value (mm^3) ([1]; day 20 after transplantation, Gem 240 mg/kg or Lipo 2 mg/kg, PD-1 10 mg/kg or PBS): 2265 mm^3
Tumor volume mean value (mm^3) ([1]; day 23 after transplantation, Gem 240 mg/kg or Lipo 2 mg/kg, PD-1 10 mg/kg or PBS): 3521 mm^3
animals subjected to euthanasia by the day of test termination ([1]; post-transplantation day 41, Gem 240 mg/kg or Lipo 2 mg/kg, PD-1 10 mg/kg or PBS): all animals
tumor growth inhibitory effect (in words) ([2]; Gem 240 mg/kg or Lipo 1 mg/kg, PD-L1 or Iso antibody 10 mg/kg): tumor growth could not be stopped
Median survival ([2]; Kaplan-Meier, euthanasia at tumor volume >10% of body weight, Gem 240 mg/kg or Lipo 1 mg/kg, PD-L1 or Iso antibody 10 mg/kg): 20
Complete remission rate (%) ([2]; by day 41, Gem 240 mg/kg or Lipo 1 mg/kg, PD-L1 or Iso antibody 10 mg/kg): 0%
Number of test subjects in complete remission ([2]; by post-transplantation day 41, 8 per group, Gem 240 mg/kg or Lipo 1 mg/kg once/3W tail, PD-L1 or Iso antibody 10 mg/kg twice/3W i.p.): 0
test subjects subjected to euthanasia by the day of test termination ([2]; post-transplantation day 41, Gem 240 mg/kg or Lipo 1 mg/kg, PD-L1 or Iso antibody 10 mg/kg): all test subjects
effect of prolonging the survival time (in words) ([2]; single agents vs Group 1, combinations vs same drug + Iso antibody, Gem 240 mg/kg or Lipo 1 mg/kg, PD-L1 10 mg/kg): No significant prolongation
percentage of CD8-positive T cells in the tumor (in words) [3]: not changed
Median survival Percentage (control group / comparative group) [4, 5]: 1.40
tumor growth inhibitory effect (in words) [4, 5]: tumor growth could not be stopped
Median survival ([4]; Kaplan-Meier, euthanasia at tumor volume >10% of body weight, Gem 240 mg/kg or Lipo 1 mg/kg, CTLA-4 10 mg/kg or PBS): 29.5
Complete remission rate (%) ([4]; by day 52, Gem 240 mg/kg or Lipo 1 mg/kg, CTLA-4 10 mg/kg or PBS): 0%
Number of test subjects in complete remission ([4]; by post-transplantation day 52, 8 per group, Gem 240 mg/kg or Lipo 1 mg/kg once/3W tail, CTLA-4 10 mg/kg or PBS twice/3W i.p.): 0
test subjects subjected to euthanasia by the day of test termination ([4]; post-transplantation day 52, out of 8, Gem 240 mg/kg or Lipo 1 mg/kg, CTLA-4 10 mg/kg or PBS): All test subjects
Log-rank Test Determination ([4]; single agents vs 5% Glu + PBS, combinations vs same drug + PBS, Gem 240 mg/kg or Lipo 1 mg/kg, CTLA-4 10 mg/kg): b (“b” indicates p<0.001)
effect of prolonging the survival time (in words) ([4]; single agents vs Group 1, combinations vs same drug + PBS, Gem 240 mg/kg or Lipo 1 mg/kg, CTLA-4 10 mg/kg): statistically significant effect
